The text below walks through data of patent US10035801B2, “Pyrazolo compounds and uses thereof” (CONSTELLATION PHARMACEUTICALS, INC., priority 2013, dated 2018).

This assay concerns the target T1, KDM5A (Homo sapiens, UniProt P29375).
T1 construct: Full length KDM5A enzyme was expressed and purified inhouse; made in house
Put plainly: KDM5 enzyme assay, KDM5A HTRF (Example 463). Type of assay: biochemical. The note with it: compounds of Examples 1-432; read-out: Example 463 Assay KDM5A HTRF IC50.

Molecules are shown by their SMILES.

T1 sequence (P29375 whole entry): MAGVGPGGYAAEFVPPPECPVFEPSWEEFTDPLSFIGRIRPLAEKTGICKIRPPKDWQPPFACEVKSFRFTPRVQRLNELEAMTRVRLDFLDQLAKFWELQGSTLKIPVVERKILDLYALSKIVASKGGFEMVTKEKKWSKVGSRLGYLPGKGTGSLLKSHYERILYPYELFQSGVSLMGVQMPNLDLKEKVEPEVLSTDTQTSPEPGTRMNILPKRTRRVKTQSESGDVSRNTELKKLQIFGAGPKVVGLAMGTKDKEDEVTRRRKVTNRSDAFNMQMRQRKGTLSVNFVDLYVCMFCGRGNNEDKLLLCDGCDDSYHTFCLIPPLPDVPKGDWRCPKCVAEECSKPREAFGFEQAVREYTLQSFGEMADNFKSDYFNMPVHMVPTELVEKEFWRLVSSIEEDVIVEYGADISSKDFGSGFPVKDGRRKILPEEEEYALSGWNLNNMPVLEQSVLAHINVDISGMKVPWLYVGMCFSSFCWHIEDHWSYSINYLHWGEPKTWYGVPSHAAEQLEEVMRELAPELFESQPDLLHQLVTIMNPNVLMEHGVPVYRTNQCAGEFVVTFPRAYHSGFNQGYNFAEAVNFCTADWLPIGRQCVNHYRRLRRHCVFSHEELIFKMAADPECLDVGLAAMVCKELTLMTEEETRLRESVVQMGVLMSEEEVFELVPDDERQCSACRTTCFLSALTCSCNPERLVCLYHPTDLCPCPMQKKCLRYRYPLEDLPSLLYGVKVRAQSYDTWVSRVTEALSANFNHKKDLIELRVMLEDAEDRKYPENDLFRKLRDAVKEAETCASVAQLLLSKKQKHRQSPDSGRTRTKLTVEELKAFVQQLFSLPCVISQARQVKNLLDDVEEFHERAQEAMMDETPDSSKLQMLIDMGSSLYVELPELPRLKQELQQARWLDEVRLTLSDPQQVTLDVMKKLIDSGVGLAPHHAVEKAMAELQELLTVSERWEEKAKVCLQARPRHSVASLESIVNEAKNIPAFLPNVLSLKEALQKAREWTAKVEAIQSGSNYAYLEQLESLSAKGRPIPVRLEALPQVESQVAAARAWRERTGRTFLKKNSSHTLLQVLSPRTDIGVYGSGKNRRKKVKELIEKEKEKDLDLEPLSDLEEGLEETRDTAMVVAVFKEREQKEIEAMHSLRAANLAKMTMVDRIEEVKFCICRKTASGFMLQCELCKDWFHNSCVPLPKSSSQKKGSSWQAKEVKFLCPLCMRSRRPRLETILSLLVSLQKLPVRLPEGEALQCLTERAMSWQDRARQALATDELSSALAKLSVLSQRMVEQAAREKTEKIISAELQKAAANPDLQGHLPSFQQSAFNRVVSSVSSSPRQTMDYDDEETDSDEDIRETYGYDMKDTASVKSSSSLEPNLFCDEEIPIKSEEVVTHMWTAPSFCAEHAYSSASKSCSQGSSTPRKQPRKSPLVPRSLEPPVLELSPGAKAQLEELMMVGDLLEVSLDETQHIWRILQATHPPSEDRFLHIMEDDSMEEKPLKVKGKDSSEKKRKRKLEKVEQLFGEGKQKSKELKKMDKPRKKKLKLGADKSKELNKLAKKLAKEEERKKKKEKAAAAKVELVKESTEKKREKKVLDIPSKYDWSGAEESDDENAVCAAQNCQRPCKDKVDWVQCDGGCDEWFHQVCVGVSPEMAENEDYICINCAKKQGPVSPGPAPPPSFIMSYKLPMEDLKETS

`CCC(C)n1cc(-c2[nH]c3c(C#N)cnn3c(=O)c2C(C)C)cn1` (centres unmarked) [Example 107]: the IC50 amounted to 0.019 µM. As for `CC(C)c1c(-c2ccc(F)c(C(=O)N3CCCC3)c2)[nH]c2c(C#N)cnn2c1=O` [Example 108], the IC50 was 0.028 µM. Take `CC(C)c1c(-c2ccn(S(=O)(=O)C3CC3)n2)[nH]c2c(C#N)cnn2c1=O` [Example 109]: the IC50 amounted to 0.011 µM. Take `CC(C)c1c(-c2ccn(C(=O)C3CC3)n2)[nH]c2c(C#N)cnn2c1=O` [Example 110]: the IC50 stood at 0.007 µM.

As to `CC(C)c1c(-c2cnn(CCC3CC3)c2)[nH]c2c(C#N)cnn2c1=O` [Example 111], the IC50 was determined as 0.015 µM. For the compound `COC(=O)c1c(-c2ccccc2)[nH]c2c(C#N)cnn2c1=O` [Example 112], the concentration for half-maximal inhibition (IC50) was determined as 0.33 µM. In the case of `CC(C)c1c(-c2cnn(Cc3cccc(-c4ccccc4)c3)c2)[nH]c2c(C#N)cnn2c1=O` [Example 113] it was 0.006 µM.

`CC(C)c1c(-c2cnn(CCc3ccccc3)c2)[nH]c2c(C#N)cnn2c1=O` [Example 114]: the IC50 amounted to 0.0055 µM. Regarding `COc1ccccc1Cn1cc(-c2[nH]c3c(C#N)cnn3c(=O)c2C(C)C)cn1` [Example 115], the IC50 stood at 0.006 µM. As to `COc1ccc(Cn2cc(-c3[nH]c4c(C#N)cnn4c(=O)c3C(C)C)cn2)cc1` [Example 116], the IC50 was 0.008 µM. To `CC(C)c1c(-c2cnn(C(C)(C)C)c2)[nH]c2c(C#N)cnn2c1=O` [Example 117] belongs 0.014 µM; to `Cc1ccc(-c2[nH]c3c(C#N)cnn3c(=O)c2C(C)C)cc1C` [Example 118], 0.015 µM; to `CCOc1ccc(-c2[nH]c3c(C#N)cnn3c(=O)c2C(C)C)cc1Cl` [Example 119], 0.019 µM. Take `COc1ccc(-c2[nH]c3c(C#N)cnn3c(=O)c2C(C)C)cc1C` [Example 120]: the IC50 is 0.019 µM. Turning to `Cc1nc2cc(-c3[nH]c4c(C#N)cnn4c(=O)c3C(C)C)ccc2s1` [Example 121], the IC50 stood at 0.01 µM. Take `CC(C)c1c(-c2cnn(Cc3ccccc3Oc3ccccc3)c2)[nH]c2c(C#N)cnn2c1=O` [Example 122]: the IC50 was 0.013 µM. In the case of `CC(C)c1c(-c2cnn(S(=O)(=O)c3ccccc3)c2)[nH]c2c(C#N)cnn2c1=O` [Example 123], the IC50 worked out at 0.008 µM.

Consider `CC(C)c1c(-c2cnn(C(=O)c3ccccc3)c2)[nH]c2c(C#N)cnn2c1=O` [Example 124], for which the IC50 came to 0.011 µM. In the case of `CC(C)c1c(-c2cnn(C(c3ccccc3)c3ccccc3)c2)[nH]c2c(C#N)cnn2c1=O` [Example 125], the IC50 turned out to be 0.03 µM. Consider `CC(C)c1c(-c2cnn(Cc3ccccc3-c3ccccc3)c2)[nH]c2c(C#N)cnn2c1=O` [Example 126], for which the IC50 came out at 0.008 µM. Regarding `CC(C)c1c(-c2cnn(CC3CCCCC3)c2)[nH]c2c(C#N)cnn2c1=O` [Example 127], the IC50 is 0.013 µM. Take `CC(C)c1c(-c2cnn(Cc3cccnc3)c2)[nH]c2c(C#N)cnn2c1=O` [Example 128]: the IC50 came to 0.016 µM. Take `C=Cc1c(-c2ccccc2)[nH]c2c(C#N)cnn2c1=O` [Example 129]: the IC50 is 0.023 µM. With `CC(C)c1c(-c2cc3ccccc3o2)[nH]c2c(C#N)cnn2c1=O` [Example 130], the IC50 came out at 0.0045 µM. In the case of `CC(C)c1c(/C=C/c2ccccc2)[nH]c2c(C#N)cnn2c1=O` [Example 131] it was 0.018 µM; in that of `CCc1ccc(-c2[nH]c3c(C#N)cnn3c(=O)c2C(C)C)o1` [Example 132], 0.0072 µM. For `COCCn1cc(-c2[nH]c3c(C#N)cnn3c(=O)c2C(C)C)cn1` [Example 133], the IC50 came out at 0.011 µM. Regarding `CC(C)c1c(-c2cnn(Cc3cccc4ccccc34)c2)[nH]c2c(C#N)cnn2c1=O` [Example 134], the IC50 worked out at 0.0055 µM. Turning to `CC(C)c1c(-c2cnn(Cc3ccc(-c4ccccc4)cc3)c2)[nH]c2c(C#N)cnn2c1=O` [Example 135], the IC50 worked out at 0.0058 µM. Turning to `CC(C)c1c(-c2cccc(Oc3ccccc3)c2)[nH]c2c(C#N)cnn2c1=O` [Example 136], the IC50 is 0.009 µM. Take `CC(C)c1c(C#Cc2ccccc2)[nH]c2c(C#N)cnn2c1=O` [Example 137]: the IC50 amounted to 0.012 µM. For the compound `CC(C)c1c(-c2ccc(Cl)c(Cl)c2)[nH]c2c(C#N)cnn2c1=O` [Example 138], the IC50 is 0.015 µM. For the compound `COc1ccc(-c2[nH]c3c(C#N)cnn3c(=O)c2C(C)C)cc1Cl` [Example 139], the IC50 stood at 0.013 µM. In the case of `COc1cc(-c2[nH]c3c(C#N)cnn3c(=O)c2C(C)C)ccc1C` [Example 140] it was 0.012 µM; in that of `CC(C)c1c(-c2cnn(Cc3cscn3)c2)[nH]c2c(C#N)cnn2c1=O` [Example 141], 0.0093 µM. In the case of `CC(C)c1c(-c2ccc3[nH]ncc3c2)[nH]c2c(C#N)cnn2c1=O` [Example 142] it was 0.012 µM; in that of `COc1ccc(-c2[nH]c3c(C#N)cnn3c(=O)c2C(C)C)cc1OC` [Example 143], 0.025 µM; in that of `COc1c(C)cc(-c2[nH]c3c(C#N)cnn3c(=O)c2C(C)C)cc1C` [Example 144], 0.019 µM. `CC(C)c1c(-c2cnn(C3COC3)c2)[nH]c2c(C#N)cnn2c1=O` [Example 145]: the IC50 came to 0.017 µM. With `CC(C)c1c(-c2cnn(CCN(C)C)c2)[nH]c2c(C#N)cnn2c1=O` [Example 149], the IC50 came out at 0.006 µM. Regarding `Cc1ccc(-c2[nH]c3c(C#N)cnn3c(=O)c2C(C)C)cc1C#N` [Example 150], the IC50 turned out to be 0.014 µM. `CC(C)c1c(-c2ccc3c(c2)OCO3)[nH]c2c(C#N)cnn2c1=O` [Example 151]: the IC50 was found to be 0.017 µM. In the case of `CC(C)c1c(-c2ccc3c(c2)CCO3)[nH]c2c(C#N)cnn2c1=O` [Example 152] it was 0.014 µM. For `CC(C)c1c(-c2cnn(Cc3cccc(F)c3)c2)[nH]c2c(C#N)cnn2c1=O` [Example 154], the IC50 came to 0.006 µM. Turning to `CC(C)c1c(-c2cnn(Cc3cccs3)c2)[nH]c2c(C#N)cnn2c1=O` [Example 155], the IC50 stood at 0.0098 µM.

On to `CC(C)c1c(-c2cnn(CC(F)(F)F)c2)[nH]c2c(C#N)cnn2c1=O` [Example 156], for which the IC50 came to 0.022 µM. Turning to `CC(C)c1c(-c2cnn(Cc3cccc(Cl)c3)c2)[nH]c2c(C#N)cnn2c1=O` [Example 157], the IC50 came to 0.007 µM. For `CC(C)Cn1cc(-c2[nH]c3c(C#N)cnn3c(=O)c2C(C)C)cn1` [Example 158], the IC50 was found to be 0.015 µM. Turning to `CC(C)c1c(-c2cnn(CCC(F)(F)F)c2)[nH]c2c(C#N)cnn2c1=O` [Example 159], the IC50 was determined as 0.035 µM.

Consider `CC(C)c1c(-c2cnn(C(F)F)c2)[nH]c2c(C#N)cnn2c1=O` [Example 160], for which the IC50 came out at 0.019 µM. Regarding `CC(C)c1c(-c2cnn(CCC#N)c2)[nH]c2c(C#N)cnn2c1=O` [Example 161], the IC50 was 0.013 µM. Take `CCc1c(-c2ccoc2)n(C)c2c(C#N)cnn2c1=O` [Example 162]: the half-inhibitory concentration (IC50) was 0.064 µM. With `CC(C)c1c(-c2cccc(F)c2)n(C)c2c(C#N)cnn2c1=O` [Example 163], the IC50 came out at 0.097 µM. Consider `CC(C)c1c(-c2cccc(C(F)(F)F)c2)n(C)c2c(C#N)cnn2c1=O` [Example 164], for which the IC50 was 0.15 µM. `COc1cccc(-c2c(C(C)C)c(=O)n3ncc(C#N)c3n2C)c1` [Example 165]: the IC50 is 0.061 µM. Take `CC(C)c1c(-c2cccc(C#N)c2)n(C)c2c(C#N)cnn2c1=O` [Example 166]: the IC50 turned out to be 0.2 µM.
